The conditions of data set [1]: some patients; cited from earlier work.
Another data set deals with colon cancer model. Type of data set: in vivo, mice. As to conditions: tumors and tumor draining lymph nodes. The text has this:
FIGS. 13A-13D show data from embodiments of the invention. FIG. 13A. […] FIG. 13B. […] White circles indicate tumor draining lymph nodes, yellow arrows point to tumors. FIG. 13C.
The discovery of the immune response that results from chemotherapy-induced tumor cell death, termed immunogenic cell death (32), has sparked interest in harnessing chemotherapy’s immunomodulatory effects for possible synergistic combinations with immunotherapeutics (33,34).

Another data set relates to heart. As to conditions: cited from earlier work.
In data set [2] the target is T1, deoxyguanosine kinase (dGK) (Homo sapiens, UniProt Q16854).
T1 sequence (Q16854 40-277): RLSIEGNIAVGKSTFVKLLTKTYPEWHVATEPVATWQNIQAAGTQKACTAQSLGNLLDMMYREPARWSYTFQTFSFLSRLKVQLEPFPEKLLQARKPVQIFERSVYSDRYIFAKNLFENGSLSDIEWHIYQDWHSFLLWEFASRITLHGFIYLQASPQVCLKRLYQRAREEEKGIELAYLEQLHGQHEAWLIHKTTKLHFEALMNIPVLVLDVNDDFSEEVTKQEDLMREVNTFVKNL
Description: Enzyme kinetics of dGK. Type of data set: biochemical. To be noted: dGuo positive control, unit not given. From the text:
[…]. Lines indicate best fit. […]. Lines indicate best fit. […].

For the next data set, the system named is CCRF-CEM cells. Description: Competition of cold 2F-AraG with 8-[3H]-AraG uptake, CCRF-CEM. Type of data set: cell-based. To be noted: increasing 2F-AraG 1-100 µM, 60 or 120 minutes. The procedure:
FIG. 2.3A illustrates a graph of 5 × 10^5CCRF-CEM cells were incubated, in triplicate, with 1uCi 8H^3-AraG (1mCi/ml) and increasing amounts of cold 2F-AraG or DMSO for either 60 or 120 minutes. Percent of control uptake was calculated as: measured cpm of sample/ cpm accumulated 1uCi 8[H^3]-AraG control x 100.
Previously we successfully synthesized a novel ^18F derivative of 2-deoxyguanosine analog, 9-β-D-arabinofuranosylguanine (“^18F-AraG” or “[^18F]F—AraG)”, to use as a molecular probe (FIG. 2.1). [^18F]AraG cell uptake was evaluated in leukemia cell line, CCRF-CEM, and was compared with [^3H]AraG cell uptake. […] To determine whether cold derivative 2F-AraG competes with the uptake of 8-[^3H]—AraG, we studied the [^3H]-Arag uptakes by CCRF-CEM, MOLT-4 (Leukemia cell line) and Raji (human Burkitt’s lymphoma cell line) and competition with cold 2F-AraG (FIGS. 2.3A and 2.3B). […] Competition assays indicate that cold derivative 2F-Arag competes with the uptake of the 8-[^3H]—AraG, indicating similar uptake pathways.

Substrate in data set [3]: Nc1nc2c(ncn2[C@H]2C[C@H](O)[C@@H](CO)O2)c(=O)[nH]1
Description: purified protein, by the assay type. As to conditions: other: dGuo positive control, unit inferred.

For the molecule `Nc1nc2c(ncn2[C@@H]2O[C@H](CO)[C@@H](O)[C@@H]2O)c(=O)[nH]1` [AraG, 9-(β—D—Arabinofuranosyl)guanine], the “Therapeutic serum level at which neurotoxic side effects are reported” value in data set [1] was ~ 150 µM.

In the case of Paclitaxel/carboplatin, the “Change in [18F]F-AraG signal intensity after treatment” value in the data set on colon cancer model is “did not lead to appreciable changes”.

Take `COc1cccc2c1C(=O)c1c(O)c3c(c(O)c1C2=O)C[C@@](O)(C(=O)CO)C[C@@H]3O[C@H]1C[C@H](N)[C@H](O)[C@H](C)O1` [doxorubicin]: the “Effect of treatment on 18FDG uptake in the heart” value in the data set on heart (in vivo) was “increase”.

`Nc1nc2c(ncn2[C@H]2C[C@H](O)[C@@H](CO)O2)c(=O)[nH]1` [dGuo, 2′-deoxyguanosine]: the “Vmax of dGK” value in data set [2] was found to be 123.2.

Regarding `CC(C)Oc1cccc(C=NCC(C)(C)CNCCNCC(C)(C)CN=Cc2cccc(OC(C)C)c2[O-])c1[O-].[68Ga+3].[I-]` [^68Ga-Galmydar], the “Cardiac uptake of tracer in doxorubicin treated animals” value in the data set with heart (preclinical studies) was “reduction in cardiac uptake”.

Regarding `Nc1nc2c(ncn2[C@@H]2O[C@H](CO)[C@@H](O)[C@@H]2F)c(=O)[nH]1` [2F-AraG, 2′-Deoxy-2′-fluoro-9-β-D-arabinofuranosylguanine], the “Effect on [3H]-AraG uptake” value with CCRF-CEM cells is on record as “decrease”.

B1: deoxyguanosine kinase (dGK) (Homo sapiens) (protein)
chain: RLSIEGNIAVGKSTFVKLLTKTYPEWHVATEPVATWQNIQAAGTQKACTAQSLGNLLDMMYREPARWSYTFQTFSFLSRLKVQLEPFPEKLLQARKPVQIFERSVYSDRYIFAKNLFENGSLSDIEWHIYQDWHSFLLWEFASRITLHGFIYLQASPQVCLKRLYQRAREEEKGIELAYLEQLHGQHEAWLIHKTTKLHFEALMNIPVLVLDVNDDFSEEVTKQEDLMREVNTFVKNL
In general, Km refers to the substrate concentration at which the rate is half of its maximum. In the case of B1, in data set [3], the Km stood at 5.08 µM.

Source of the values: patent US20230309833A1, “METHODS AND MATERIALS FOR USING [18F]-F-ARAG IN CARDIAC IMAGING” (CELLSIGHT TECHNOLOGIES INC., priority 2020, published 2023).
